From US8258140B2 (Astrazeneca AB, priority 2009, dated 2012)

Biological target: T1, Androgen Receptor (AR) in the LNCaP prostate carcinoma cell line (Homo sapiens, UniProt P10275, T878A)
T1 construct: cell based immuno-fluorescence assay using the LNCaP prostate epithelial cell line; host or cells: LNCaP clone FGC
T1 sequence (P10275 1-920 T878A): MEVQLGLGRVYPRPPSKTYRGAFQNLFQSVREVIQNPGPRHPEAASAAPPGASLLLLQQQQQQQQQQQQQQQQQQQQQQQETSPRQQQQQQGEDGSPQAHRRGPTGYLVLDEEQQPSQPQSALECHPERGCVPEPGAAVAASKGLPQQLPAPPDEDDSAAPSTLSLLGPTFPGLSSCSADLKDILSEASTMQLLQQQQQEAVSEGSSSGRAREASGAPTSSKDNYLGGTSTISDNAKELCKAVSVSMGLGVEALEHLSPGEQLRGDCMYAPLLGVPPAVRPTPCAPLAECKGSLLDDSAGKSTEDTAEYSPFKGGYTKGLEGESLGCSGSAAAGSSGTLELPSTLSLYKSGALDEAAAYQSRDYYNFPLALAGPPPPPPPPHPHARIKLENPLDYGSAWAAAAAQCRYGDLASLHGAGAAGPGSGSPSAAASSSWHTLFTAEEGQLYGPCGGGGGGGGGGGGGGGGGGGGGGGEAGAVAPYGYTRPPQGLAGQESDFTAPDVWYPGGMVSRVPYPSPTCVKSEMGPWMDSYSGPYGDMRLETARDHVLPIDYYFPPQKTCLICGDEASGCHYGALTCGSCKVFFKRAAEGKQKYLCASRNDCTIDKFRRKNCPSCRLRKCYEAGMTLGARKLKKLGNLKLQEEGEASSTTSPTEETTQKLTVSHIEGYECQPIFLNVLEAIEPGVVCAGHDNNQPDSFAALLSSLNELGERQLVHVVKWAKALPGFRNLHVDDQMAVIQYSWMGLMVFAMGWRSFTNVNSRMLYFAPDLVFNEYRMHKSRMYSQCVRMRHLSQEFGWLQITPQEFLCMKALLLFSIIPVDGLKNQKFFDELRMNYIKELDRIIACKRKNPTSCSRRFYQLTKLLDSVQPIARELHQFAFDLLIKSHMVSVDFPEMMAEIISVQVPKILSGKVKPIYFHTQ
Experiment: LNCaP Androgen Receptor Down-Regulation Cell Assay (immunofluorescence end point)
Type: cell-based
Settings: LNCaP cells, compound incubation 20-22 hours, concentration giving 50% reduction of the AR signal
Method: The ability of compounds to reduce Androgen Receptor (AR) numbers was assessed in a cell based immuno-fluorescence assay using the LNCaP prostate epithelial cell line.
This immunofluorescence end point assay measures the ability of a test compound to down-regulate and reduce measured levels of the AR in the LNCaP prostate carcinoma cell line (LNCaP clone FGC (CRL-1740) obtained from the American Type Culture Collection (ATCC)).
LNCaP cells were cultured in Growth Medium (phenol red free Roswell Park Memorial Institute (RPMI) 1640 (Invitrogen Code no. 11835-063) containing 2 mM L-Glutamine (Invitrogen Code no. 25030-024) and 1% (v/v) Penicillin/Streptomycin (10000 units/ml Penicillin and 10000 μg/ml of Streptomycin utilising penicillin G (sodium salt) and streptomycin sulphate: prepared in normal saline, Invitrogen Code no. 15140122) and 10% (v/v) foetal bovine serum (FBS)) in a 5% CO2 air incubator at 37° C. Cells for assay were harvested from T175 stock flasks by washing once in PBS (phosphate buffered saline, pH 7.4) (Invitrogen Code no. 14190-094) and harvested using 5 mls of 1× Trypsin/ethylaminediaminetetraacetic acid (EDTA) (10× Trypsin-EDTA, 5.0 g/L Trypsin, 2.0 g/L of EDTA.4Na and 8.5 g/L of NaCl, without Phenol Red, Invitrogen Code no. 15400-054) diluted in PBS solution. A 5 ml volume of Growth Medium was added to each flask (as above except that 5% (v/v) charcoal stripped FBS (HyClone Code no. SH30068.03) was included instead of 10% (v/v) FBS). Cells were syringed at least twice using a sterile 18 G×1.5″ (1.2×40 mm) broad gauge needle and cell density was measured using a haemocytometer. Cells were further diluted in Growth Medium plus 5% (v/v) charcoal stripped FBS and seeded at a density of 6.5×10^3 cells per well (in 90 ul) into transparent, black, tissue culture treated 96 well plates (Packard, No. 6005182).
Test data reported herein was generated using two different compounds preparation and dosing methods. In method (1) a 10 mM compound stock solution in 100% (v/v) DMSO was serially diluted in 4-fold steps in 100% (v/v) DMSO using a Thermo Scientific Matrix SerialMate. The diluted compounds were then further diluted 1 in 30 in assay media using a Thermo Scientific Matrix PlateMate and a 10 μl aliquot of this dilution was dosed to cells manually using a multi-channel pipette. In method (2) starting with a 10 mM compound stock solution, the Labcyte Echo 550 was used to generate a compound concentration response set diluted in 30 μl of assay media. The Echo 550 is a liquid handler that uses acoustic technology to perform direct microplate-to-microplate transfers of DMSO compound solutions. The system can be programmed to transfer volumes as low as 2.5 nL in multiple increments between microplates and in so doing generates a serial dilution of compound which is then back-filled to normalise the DMSO concentration across the dilution range. A 10 μl volume of diluted compound is then dosed to cells using a Thermo Scientific Matrix PlateMate.
Plates were incubated overnight at 37° C., 5% CO2. Wells were then dosed with compound prepared by one of the 2 methods above and further incubated for 20-22 hours at 37° C., 5% CO2. Plates were fixed by the addition of 20 μl of 10% (v/v) formaldehyde solution (in PBS) to each well (final formaldehyde conc.=1.67% (v/v)) and left at room temperature for 10 mins. This fixative solution was removed and cells were washed with 250 μl of PBS/0.05% (v/v) Tween 20 (PBST) using an automated plate washer. This process was then repeated twice more.
Immunostaining was performed at room temperature. Cells were permeabilised by the addition of 35 μl of PBS containing 0.5% Tween 20 and incubated for 1 hour at room temperature. Permeabilisation solution was removed and cells were washed with 250 μl of PBST using an automated plate washer. This process was then repeated twice more. […]

Compound	IC50 [µM]
6-(4-{4-[2-(1H-imidazol-1-yl)ethoxy]phenyl}piperazin-1-yl)-3-(trifluoromethyl)-7,8-dihydro[1,2,4]triazolo[4,3-b]pyridazine [Example 38]	7.8
6-(4-{4-[2-(1H-imidazol-1-yl)ethoxy]phenyl}piperidin-1-yl)-3-(trifluoromethyl)-7,8-dihydro[1,2,4]triazolo[4,3-b]pyridazine [Example 41]	2.9
Fc1ccc(CN2CCN(C3=Nn4c(nnc4C(F)(F)F)CC3)CC2)cc1 [Example 1, 6-[4-(4-fluorobenzyl)piperazin-1-yl]-3-(trifluoromethyl)-7,8-dihydro[1,2,4]triazolo[4,3-b]pyridazine]	6
FC(F)(F)c1nnc2n1N=C(N1CC=C(c3c[nH]c4ccccc34)CC1)CC2 [Example 2, 6-[4-(1H-indol-3-yl)-5,6-dihydropyridin-1(2H)-yl]-3-(trifluoromethyl)-7,8-dihydro-[1,2,4]triazolo[4,3-b]pyridazine]	3.2
FC(F)(F)c1nnc2n1N=C(N1CCC(c3c[nH]c4ccccc34)CC1)CC2 [Example 3, 6-[4-(1H-indol-3-yl)piperidin-1-yl]-3-(trifluoromethyl)-7,8-dihydro[1,2,4]triazolo[4,3-b]pyridazine]	1.2
Fc1cccc(CN2CCN(C3=Nn4c(nnc4C(F)(F)F)CC3)CC2)c1 [Example 6, 6-[4-(3-fluorobenzyl)piperazin-1-yl]-3-(trifluoromethyl)-7,8-dihydro[1,2,4]triazolo[4,3-b]pyridazine]	4
FC(F)(F)c1nnc2n1N=C(N1CCN(Cc3cccc(Cl)c3)CC1)CC2 [Example 7, 6-[4-(3-chlorobenzyl)piperazin-1-yl]-3-(trifluoromethyl)-7,8-dihydro[1,2,4]triazolo[4,3-b]pyridazine]	2.9
FC(F)(F)c1cccc(CN2CCN(C3=Nn4c(nnc4C(F)(F)F)CC3)CC2)c1 [Example 8, 3-(trifluoromethyl)-6-{4-[3-(trifluoromethyl)benzyl]piperazin-1-yl}-7,8-dihydro[1,2,4]triazolo[4,3-b]pyridazine]	2.7
Fc1cccc(CN2CCN(C3=Nn4c(nnc4C(F)(F)F)CC3)CC2)c1F [Example 9, 6-[4-(2,3-difluorobenzyl)piperazin-1-yl]-3-(trifluoromethyl)-7,8-dihydro[1,2,4]triazolo[4,3-b]pyridazine]	4.1
Fc1ccc(C(F)F)c(CN2CCN(C3=Nn4c(nnc4C(F)(F)F)CC3)CC2)c1 [Example 10, 6-[4-[2-(difluoromethyl)-5-fluorobenzyl]piperazin-1-yl]-3-(trifluoromethyl)-7,8-dihydro[1,2,4]triazolo[4,3-b]pyridazine]	1
FC(F)(F)c1nnc2n1N=C(N1CCN(Cc3c[nH]c4ccccc34)CC1)CC2 [Example 11, 6-[4-(1H-indol-3-ylmethyl)piperazin-1-yl]-3-(trifluoromethyl)-7,8-dihydro[1,2,4]triazolo[4,3-b]pyridazine]	8.6
Fc1ccc2[nH]cc(CN3CCN(C4=Nn5c(nnc5C(F)(F)F)CC4)CC3)c2c1 [Example 12, 6-{4-[(5-fluoro-1H-indol-3-yl)methyl]piperazin-1-yl}-3-(trifluoromethyl)-7,8-dihydro[1,2,4]triazolo[4,3-b]pyridazine]	3.4
N#Cc1ccc2[nH]cc(CN3CCN(C4=Nn5c(nnc5C(F)(F)F)CC4)CC3)c2c1 [Example 13, 3-({4-[3-(trifluoromethyl)-7,8-dihydro[1,2,4]triazolo[4,3-b]pyridazin-6-yl]piperazin-1-yl}methyl)-1H-indole-5-carbonitrile]	> 11

Now from value to compound:

IC50 [µM]	Compound
0.18	CC(=O)N1CCN([C@H](C)COc2ccc(C3CCN(C4=Nn5c(nnc5C(F)(F)F)CC4)CC3)cc2)CC1 (single isomer, unassigned) [Example 53]
0.14	CC(=O)N1CCN([C@@H](C)COc2ccc(C3CCN(C4=Nn5c(nnc5C(F)(F)F)CC4)CC3)cc2)CC1 (single isomer, unassigned) [Example 54]
0.18	C[C@@H](COc1ccc(C2CCN(C3=Nn4c(nnc4C(F)(F)F)CC3)CC2)cc1)N1CCN(C)C(=O)C1 (single isomer, unassigned) [Example 55]
0.38	C[C@H](COc1ccc(C2CCN(C3=Nn4c(nnc4C(F)(F)F)CC3)CC2)cc1)N1CCN(C)C(=O)C1 (single isomer, unassigned) [Example 56]
> 15	OC1(c2ccc(F)cc2)CCN(C2=Nn3c(nnc3C(F)(F)F)CC2)CC1 [Example 14, 4-(4-fluorophenyl)-1-[3-(trifluoromethyl)-7,8-dihydro[1,2,4]triazolo[4,3-b]pyridazin-6-yl]piperidin-4-ol]
0.94	Cn1nccc1CCOc1ccc(C2CCN(C3=Nn4c(nnc4C(F)(F)F)CC3)CC2)cc1 [Example 15, 6-[4-[4-[2-(1-methyl-1H-pyrazol-5-yl)ethoxy]phenyl]piperidin-1-yl]-3-(trifluoromethyl)-7,8-dihydro[1,2,4]triazolo[4,3-b]pyridazine]
3.2	Cn1nccc1CCOc1ccc(N2CCN(C3=Nn4c(nnc4C(F)(F)F)CC3)CC2)cc1 [Example 16, 6-[4-[4-[2-(1-methyl-1H-pyrazol-5-yl)ethoxy]phenyl]piperazin-1-yl]-3-(trifluoromethyl)-7,8-dihydro[1,2,4]triazolo[4,3-b]pyridazine]
4.4	FC(F)(F)c1nnc2n1N=C(N1CC=C(c3c[nH]c4ncccc34)CC1)CC2 [Example 17, 6-[4-(1H-pyrrolo[2,3-b]pyridin-3-yl)-3,6-dihydropyridin-1(2H)-yl]-3-(trifluoromethyl)-7,8-dihydro[1,2,4]triazolo[4,3-b]pyridazine]
3.2	FC(F)(F)c1nnc2n1N=C(N1CCC(c3c[nH]c4ncccc34)CC1)CC2 [Example 18, 6-[4-(1H-pyrrolo[2,3-b]pyridin-3-yl)piperidin-1-yl]-3-(trifluoromethyl)-7,8-dihydro[1,2,4]triazolo[4,3-b]pyridazine]
